Data from ChEMBL document CHEMBL5543096 (J Med Chem, 2024).
Calls of active or inactive are those of the source. No cut-off for these calls is given here.

Columns and labels:
Mus musculus [1] = assay: Antidepressant activity in Reserpine-induced depressive C57BL/6J mouse model assessed as decrease in immobility time at 0.3 mg/kg,ip administration measured after 30 mins by tail suspension test; assay type: functional, organism-based
Mus musculus [2] = assay: Antidepressant activity in Reserpine-induced depressive C57BL/6J mouse model assessed as decrease in immobility time at 0.3 mg/kg,ip administration measured after 7 days by tail suspension test; assay type: functional, organism-based; conditions: time 7.0 day
Mus musculus [3] = assay: Antidepressant activity in Reserpine-induced depressive C57BL/6J mouse model assessed as decrease in immobility time at 0.1 to 0.3 mg/kg,ip administration measured after 30 mins by tail suspension test; assay type: functional, organism-based; conditions: dose 0.1-0.3 mg/kg
Mus musculus [4] = assay: Antidepressant activity in Reserpine-induced depressive C57BL/6J mouse model assessed as decrease in immobility time at 0.1 to 1 mg/kg,ip administration measured after 7 days by tail suspension test; assay type: functional, organism-based; conditions: dose 0.1-1 mg/kg, time 7.0 day
[5] = Toxicity in chronic restraint stress-induced depressive C57BL/6J mouse model assessed as decrease in percentage of spontaneous alternation at 1 mg/kg,ip administration by Y-maze test; assay type: organism-based; conditions: in vivo
Mus musculus [6] = assay: Antidepressant activity in Reserpine-induced depressive C57BL/6J mouse model assessed as decrease in immobility time at 0.3 mg/kg,ip administration measured after 5 days by tail suspension test; assay type: functional, organism-based; conditions: time 5.0 day
[7] = Toxicity in chronic restraint stress-induced depressive C57BL/6J mouse model assessed as decrease in percentage of spontaneous alternation at 2 mg/kg,ip administration by Y-maze test; assay type: organism-based; conditions: in vivo
Mus musculus [8] = assay: Antidepressant activity in chronic restraint stress-induced depressive C57BL/6J mouse model assessed as increase in hippocampal BDNF mRNA expression at 0.3 mg/kg,ip administration measured after 8 hrs by qRT-PCR analysis; assay type: functional, organism-based
Mus musculus [9] = assay: Antidepressant activity in Reserpine-induced depressive C57BL/6J mouse model assessed as decrease in immobility time at 0.3 mg/kg,ip administration measured for 1 to 3 days by tail suspension test; assay type: functional, organism-based; conditions: time 1-3 day

Row | SMILES | Activity (Mus musculus [1]) | Activity (Mus musculus [2]) | also measured
1 | C=CCC(F)(CCl)C(=O)O[C@@H]1C[C@@H]2[C@H]3O[C@H]3[C@H](C1)N2C (some centres not stated) | inactive | inactive | –
2 | C=CCC(F)(CO)C(=O)O[C@@H]1C[C@@H]2[C@H]3O[C@H]3[C@H](C1)N2C (some centres not stated) | inactive | inactive | –
3 | CN1[C@@H]2C[C@@H](OC(=O)C(F)(CO)c3ccccc3)C[C@H]1[C@@H]1O[C@@H]12 (some centres not stated) | Active | Active | –
4 | CCCCC(F)(CCl)C(=O)O[C@@H]1C[C@@H]2[C@H]3O[C@H]3[C@H](C1)N2C (some centres not stated) | inactive | inactive | –
5 | CN1[C@@H]2C[C@@H](OC(=O)C(F)(CI)c3ccccc3)C[C@H]1[C@@H]1O[C@@H]12 (some centres not stated) | inactive | inactive | –
6 | CN1[C@@H]2C[C@@H](OC(=O)C(F)(CBr)c3ccccc3)C[C@H]1[C@@H]1O[C@@H]12 (some centres not stated) | inactive | inactive | –
7 | CN1[C@@H]2C[C@@H](OC(=O)C(F)(CBr)Cc3ccccc3)C[C@H]1[C@@H]1O[C@@H]12 (some centres not stated) | inactive | inactive | –
8 | CN1[C@@H]2C[C@@H](OC(=O)C(F)(CO)c3ccc(F)cc3)C[C@H]1[C@@H]1O[C@@H]12 (some centres not stated) | – | inactive | –
9 | CN1[C@@H]2CC[C@H]1C[C@@H](OC(=O)C(F)(CO)c1ccccc1)C2 (some centres not stated) | inactive | inactive | –
10 | CCCCC(F)(CO)C(=O)O[C@@H]1C[C@@H]2[C@H]3O[C@H]3[C@H](C1)N2C (some centres not stated) | inactive | inactive | –
11 | CN1[C@@H]2C[C@@H](OC(=O)C(F)(CO)c3cccc(F)c3)C[C@H]1[C@@H]1O[C@@H]12 (some centres not stated) | Active | inactive | –
12 | CN1[C@@H]2C[C@@H](OC(=O)C(F)(CO)Cc3ccccc3F)C[C@H]1[C@@H]1O[C@@H]12 (some centres not stated) | – | inactive | –
13 | CN1[C@@H]2C[C@@H](OC(=O)C(F)(CO)Cc3ccccc3Br)C[C@H]1[C@@H]1O[C@@H]12 (some centres not stated) | – | inactive | –
14 | CN1[C@@H]2C[C@@H](OC(=O)C(F)(CCl)c3ccccc3)C[C@H]1[C@@H]1O[C@@H]12 (some centres not stated) | inactive | inactive | –
15 | CN1[C@@H]2C[C@@H](OC(=O)C(F)(CO)Cc3ccc(C(F)(F)F)cc3)C[C@H]1[C@@H]1O[C@@H]12 (some centres not stated) | – | inactive | –
16 | Cc1ccc(S(=O)(=O)OCC(F)(Cc2ccccc2)C(=O)O[C@@H]2C[C@@H]3[C@H]4O[C@H]4[C@H](C2)N3C)cc1 (some centres not stated) | inactive | inactive | –
17 | CN1[C@@H]2C[C@@H](OC(=O)C(F)(CN=[N+]=[N-])Cc3ccccc3)C[C@H]1[C@@H]1O[C@@H]12 (some centres not stated) | inactive | inactive | –
18 | CN1[C@@H]2C[C@@H](OC(=O)[C@](F)(CO)c3ccccc3)C[C@H]1[C@@H]1O[C@@H]12 | – | – | Activity (Mus musculus [3]): Active; Activity (Mus musculus [4]): inactive
19 | Cc1ccc(S(=O)(=O)OCC(F)(C(=O)O[C@@H]2C[C@@H]3[C@H]4O[C@H]4[C@H](C2)N3C)c2ccccc2)cc1 (some centres not stated) | inactive | inactive | –
20 | CN1[C@@H]2C[C@@H](OC(=O)C(F)(CO)CCc3ccccc3)C[C@H]1[C@@H]1O[C@@H]12 (some centres not stated) | inactive | inactive | –
21 | CN1[C@@H]2C[C@@H](OC(=O)[C@H](CO)c3ccccc3)C[C@H]1[C@@H]1O[C@@H]12 [SCOPOLAMINE] | Active | inactive | Activity [5]: Toxic; Activity (Mus musculus [6]): inactive; Activity [7]: Toxic; Activity (Mus musculus [8]): Active; Activity (Mus musculus [9]): Active
22 | CN1[C@@H]2C[C@@H](OC(=O)C(F)(CO)CCCc3ccccc3)C[C@H]1[C@@H]1O[C@@H]12 (some centres not stated) | inactive | inactive | –
23 | CN1[C@@H]2C[C@@H](OC(=O)C(F)c3ccccc3)C[C@H]1[C@@H]1O[C@@H]12 (some centres not stated) | inactive | inactive | –
24 | CN1[C@@H]2C[C@@H](OC(=O)C(F)(CO)Cc3ccccc3)C[C@H]1[C@@H]1O[C@@H]12 (some centres not stated) | Active | inactive | –
25 | CN1[C@@H]2C[C@@H](OC(=O)C(F)(CCl)Cc3ccccc3)C[C@H]1[C@@H]1O[C@@H]12 (some centres not stated) | inactive | inactive | –
26 | CN1[C@@H]2C[C@@H](OC(=O)C(F)(CO)Cc3cccc4ccccc34)C[C@H]1[C@@H]1O[C@@H]12 (some centres not stated) | – | inactive | –
